In publication PMC11871066, “Structure-based discovery of hydrocarbon-stapled paxillin peptides that block FAK scaffolding in cancer” (Nature Communications, 2025):

Columns and labels:
Experiment in all cases: Eurofins KINOMEscan profiling, 97 kinases
[1] = target: 97 kinases (kinase named in endpoint) (Homo sapiens, UniProt O00444); conditions: read-out: % Ctrl, PLK4
[2] = target: 97 kinases (kinase named in endpoint) (Homo sapiens, UniProt O14757); conditions: read-out: % Ctrl, CHEK1
[3] = target: 97 kinases (kinase named in endpoint) (Homo sapiens, UniProt O14920); conditions: read-out: % Ctrl, IKK-beta
[4] = target: 97 kinases (kinase named in endpoint) (Homo sapiens, UniProt O75116); conditions: read-out: % Ctrl, ROCK2
[5] = target: 97 kinases (kinase named in endpoint) (Homo sapiens, UniProt P07949); conditions: read-out: % Ctrl, RET
[6] = target: 97 kinases (kinase named in endpoint) (Homo sapiens, UniProt P12931); conditions: read-out: % Ctrl, SRC
[7] = target: 97 kinases (kinase named in endpoint) (Homo sapiens, UniProt P21802); conditions: read-out: % Ctrl, FGFR2
[8] = target: 97 kinases (kinase named in endpoint) (Homo sapiens, UniProt P27361); conditions: read-out: % Ctrl, ERK1
[9] = target: 97 kinases (kinase named in endpoint) (Homo sapiens, UniProt P29317); conditions: read-out: % Ctrl, EPHA2
[10] = target: 97 kinases (kinase named in endpoint) (Homo sapiens, UniProt P31751); conditions: read-out: % Ctrl, AKT2
[11] = target: 97 kinases (kinase named in endpoint) (Homo sapiens, UniProt P36507); conditions: read-out: % Ctrl, MEK2
97 kinases (kinase named in endpoint) (Homo sapiens, UniProt P36507), sequence (P36507 whole entry): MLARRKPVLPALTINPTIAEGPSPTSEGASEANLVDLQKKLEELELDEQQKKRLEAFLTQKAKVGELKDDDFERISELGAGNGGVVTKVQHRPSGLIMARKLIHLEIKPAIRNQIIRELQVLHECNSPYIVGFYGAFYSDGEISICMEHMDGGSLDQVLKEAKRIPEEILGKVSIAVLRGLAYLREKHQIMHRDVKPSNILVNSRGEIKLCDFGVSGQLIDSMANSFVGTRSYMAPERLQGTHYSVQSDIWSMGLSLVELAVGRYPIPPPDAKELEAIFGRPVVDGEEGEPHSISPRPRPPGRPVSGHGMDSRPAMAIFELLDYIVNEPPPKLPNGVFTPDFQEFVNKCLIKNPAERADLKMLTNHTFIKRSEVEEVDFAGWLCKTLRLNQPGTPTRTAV

[12] = target: 97 kinases (kinase named in endpoint) (Homo sapiens, UniProt P36897); conditions: read-out: % Ctrl, TGFBR1
97 kinases (kinase named in endpoint) (Homo sapiens, UniProt P36897), sequence (P36897 34-503): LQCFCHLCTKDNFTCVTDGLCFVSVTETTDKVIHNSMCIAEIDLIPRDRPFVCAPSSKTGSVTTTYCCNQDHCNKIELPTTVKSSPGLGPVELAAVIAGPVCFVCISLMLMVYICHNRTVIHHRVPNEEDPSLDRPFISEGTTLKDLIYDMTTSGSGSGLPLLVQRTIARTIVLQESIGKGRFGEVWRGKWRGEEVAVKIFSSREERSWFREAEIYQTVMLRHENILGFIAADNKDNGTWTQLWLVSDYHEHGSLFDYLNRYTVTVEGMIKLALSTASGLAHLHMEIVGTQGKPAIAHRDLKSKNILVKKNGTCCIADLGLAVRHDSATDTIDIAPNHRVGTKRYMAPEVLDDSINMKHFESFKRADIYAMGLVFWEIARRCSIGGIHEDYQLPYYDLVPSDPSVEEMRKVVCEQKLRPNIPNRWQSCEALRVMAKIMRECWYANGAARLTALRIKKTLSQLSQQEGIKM

[13] = target: 97 kinases (kinase named in endpoint) (Homo sapiens, UniProt P42336); conditions: read-out: % Ctrl, PIK3CA
[14] = target: 97 kinases (kinase named in endpoint) (Homo sapiens, UniProt P45983); conditions: read-out: % Ctrl, JNK1
[15] = target: 97 kinases (kinase named in endpoint) (Homo sapiens, UniProt P48736); conditions: read-out: % Ctrl, PIK3CG
[16] = target: 97 kinases (kinase named in endpoint) (Homo sapiens, UniProt P49841); conditions: read-out: % Ctrl, GSK3B
[17] = target: 97 kinases (kinase named in endpoint) (Homo sapiens, UniProt P51812); conditions: read-out: % Ctrl, RSK2(Kin.Dom.1-N-terminal)
[18] = target: 97 kinases (kinase named in endpoint) (Homo sapiens, UniProt Q02763); conditions: read-out: % Ctrl, TIE2
[19] = target: 97 kinases (kinase named in endpoint) (Homo sapiens, UniProt Q15303); conditions: read-out: % Ctrl, ERBB4
97 kinases (kinase named in endpoint) (Homo sapiens, UniProt Q15303), sequence (Q15303 26-1308): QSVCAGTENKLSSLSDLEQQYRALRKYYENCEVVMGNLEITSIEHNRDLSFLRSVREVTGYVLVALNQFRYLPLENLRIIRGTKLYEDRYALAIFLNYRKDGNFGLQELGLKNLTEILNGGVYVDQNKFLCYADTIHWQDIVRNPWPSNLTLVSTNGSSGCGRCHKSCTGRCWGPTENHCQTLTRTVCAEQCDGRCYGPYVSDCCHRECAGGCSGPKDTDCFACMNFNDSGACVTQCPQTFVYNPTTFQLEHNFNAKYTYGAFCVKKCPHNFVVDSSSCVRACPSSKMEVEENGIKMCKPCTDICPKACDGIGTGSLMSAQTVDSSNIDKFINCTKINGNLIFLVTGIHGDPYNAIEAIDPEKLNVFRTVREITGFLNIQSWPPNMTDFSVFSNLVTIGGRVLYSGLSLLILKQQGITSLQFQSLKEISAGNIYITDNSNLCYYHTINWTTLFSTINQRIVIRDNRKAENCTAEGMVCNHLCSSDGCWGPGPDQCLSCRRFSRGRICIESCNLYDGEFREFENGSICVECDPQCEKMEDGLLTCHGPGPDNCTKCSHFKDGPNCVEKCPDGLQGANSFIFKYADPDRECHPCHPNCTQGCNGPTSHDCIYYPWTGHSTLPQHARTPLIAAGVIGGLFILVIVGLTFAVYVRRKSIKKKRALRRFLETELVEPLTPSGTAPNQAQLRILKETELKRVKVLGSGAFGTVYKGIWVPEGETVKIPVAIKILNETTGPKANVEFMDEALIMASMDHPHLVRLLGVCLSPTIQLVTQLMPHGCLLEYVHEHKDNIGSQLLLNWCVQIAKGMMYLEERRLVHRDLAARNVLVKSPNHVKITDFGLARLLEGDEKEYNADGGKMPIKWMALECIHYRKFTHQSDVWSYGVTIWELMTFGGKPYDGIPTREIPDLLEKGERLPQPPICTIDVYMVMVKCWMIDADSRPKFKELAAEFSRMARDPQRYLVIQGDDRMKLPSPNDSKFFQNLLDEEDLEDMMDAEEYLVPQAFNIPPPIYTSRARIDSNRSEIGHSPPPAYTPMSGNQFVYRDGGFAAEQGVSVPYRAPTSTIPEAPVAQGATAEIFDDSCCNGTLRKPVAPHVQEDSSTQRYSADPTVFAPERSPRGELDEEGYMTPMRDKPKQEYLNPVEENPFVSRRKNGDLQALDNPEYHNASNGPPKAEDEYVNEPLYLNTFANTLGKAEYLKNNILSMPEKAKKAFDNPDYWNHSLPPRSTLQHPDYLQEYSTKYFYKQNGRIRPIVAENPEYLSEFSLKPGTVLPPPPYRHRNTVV

[20] = target: 97 kinases (kinase named in endpoint) (Homo sapiens, UniProt Q15831); conditions: read-out: % Ctrl, LKB1
[21] = target: 97 kinases (kinase named in endpoint) (Homo sapiens, UniProt Q8IYT8); conditions: read-out: % Ctrl, ULK2
[22] = target: 97 kinases (kinase named in endpoint) (Homo sapiens, UniProt Q96GD4); conditions: read-out: % Ctrl, AURKB
[23] = target: 97 kinases (kinase named in endpoint) (Homo sapiens, UniProt Q9BUB5); conditions: read-out: % Ctrl, MKNK1
97 kinases (kinase named in endpoint) (Homo sapiens, UniProt Q9BUB5), sequence (Q9BUB5 whole entry): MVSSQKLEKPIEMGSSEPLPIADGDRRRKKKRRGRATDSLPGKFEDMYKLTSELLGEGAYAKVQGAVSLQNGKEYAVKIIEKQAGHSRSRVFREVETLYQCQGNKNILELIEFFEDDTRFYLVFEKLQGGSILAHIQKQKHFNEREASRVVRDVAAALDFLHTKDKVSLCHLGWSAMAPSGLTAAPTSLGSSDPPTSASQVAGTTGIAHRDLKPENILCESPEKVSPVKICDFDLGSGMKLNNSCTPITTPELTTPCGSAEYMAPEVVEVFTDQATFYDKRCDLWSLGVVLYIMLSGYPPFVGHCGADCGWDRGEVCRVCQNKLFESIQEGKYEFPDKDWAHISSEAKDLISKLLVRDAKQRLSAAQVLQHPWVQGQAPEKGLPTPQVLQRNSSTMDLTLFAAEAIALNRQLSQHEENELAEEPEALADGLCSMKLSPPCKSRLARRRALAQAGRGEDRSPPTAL

[24] = target: 97 kinases (kinase named in endpoint) (Homo sapiens, UniProt Q9BXA7); conditions: read-out: % Ctrl, TSSK1B
[25] = target: 97 kinases (kinase named in endpoint) (Homo sapiens, UniProt Q9HBH9); conditions: read-out: % Ctrl, MKNK2
97 kinases (kinase named in endpoint) (Homo sapiens, UniProt Q9HBH9), sequence (Q9HBH9 whole entry): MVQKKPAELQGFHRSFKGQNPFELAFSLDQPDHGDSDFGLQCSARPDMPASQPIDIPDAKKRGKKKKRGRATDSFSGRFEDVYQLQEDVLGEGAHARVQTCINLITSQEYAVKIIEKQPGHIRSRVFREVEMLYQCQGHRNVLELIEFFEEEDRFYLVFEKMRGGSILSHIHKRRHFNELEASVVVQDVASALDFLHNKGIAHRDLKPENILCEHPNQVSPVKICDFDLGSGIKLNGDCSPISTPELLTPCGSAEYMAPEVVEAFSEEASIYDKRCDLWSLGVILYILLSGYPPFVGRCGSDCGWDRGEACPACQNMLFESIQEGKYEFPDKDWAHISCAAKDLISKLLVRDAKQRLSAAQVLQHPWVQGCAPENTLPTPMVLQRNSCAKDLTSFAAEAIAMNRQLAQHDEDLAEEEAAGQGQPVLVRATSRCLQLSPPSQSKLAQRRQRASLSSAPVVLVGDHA

[26] = target: 97 kinases (kinase named in endpoint) (Homo sapiens, UniProt Q9UPE1); conditions: read-out: % Ctrl, SRPK3
97 kinases (kinase named in endpoint) (Homo sapiens, UniProt Q9UPE1), sequence (Q9UPE1 whole entry): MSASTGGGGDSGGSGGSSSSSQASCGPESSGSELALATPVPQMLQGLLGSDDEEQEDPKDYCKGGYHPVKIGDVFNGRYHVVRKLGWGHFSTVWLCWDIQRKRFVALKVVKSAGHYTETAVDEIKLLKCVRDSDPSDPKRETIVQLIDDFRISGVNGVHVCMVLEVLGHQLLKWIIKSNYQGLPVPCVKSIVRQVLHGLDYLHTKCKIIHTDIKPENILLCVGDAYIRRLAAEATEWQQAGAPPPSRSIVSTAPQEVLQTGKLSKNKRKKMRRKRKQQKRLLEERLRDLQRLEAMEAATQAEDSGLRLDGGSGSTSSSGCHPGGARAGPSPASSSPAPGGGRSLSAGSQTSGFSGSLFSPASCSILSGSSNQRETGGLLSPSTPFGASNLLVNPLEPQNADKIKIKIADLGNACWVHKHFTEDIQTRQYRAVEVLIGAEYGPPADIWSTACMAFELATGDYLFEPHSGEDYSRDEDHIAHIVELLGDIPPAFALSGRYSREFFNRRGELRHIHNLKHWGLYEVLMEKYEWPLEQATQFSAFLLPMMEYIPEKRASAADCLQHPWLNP

[27] = target: 97 kinases (kinase named in endpoint) (Homo sapiens, UniProt Q9Y463); conditions: read-out: % Ctrl, DYRK1B
97 kinases (kinase named in endpoint) (Homo sapiens, UniProt Q9Y463), sequence (Q9Y463 whole entry): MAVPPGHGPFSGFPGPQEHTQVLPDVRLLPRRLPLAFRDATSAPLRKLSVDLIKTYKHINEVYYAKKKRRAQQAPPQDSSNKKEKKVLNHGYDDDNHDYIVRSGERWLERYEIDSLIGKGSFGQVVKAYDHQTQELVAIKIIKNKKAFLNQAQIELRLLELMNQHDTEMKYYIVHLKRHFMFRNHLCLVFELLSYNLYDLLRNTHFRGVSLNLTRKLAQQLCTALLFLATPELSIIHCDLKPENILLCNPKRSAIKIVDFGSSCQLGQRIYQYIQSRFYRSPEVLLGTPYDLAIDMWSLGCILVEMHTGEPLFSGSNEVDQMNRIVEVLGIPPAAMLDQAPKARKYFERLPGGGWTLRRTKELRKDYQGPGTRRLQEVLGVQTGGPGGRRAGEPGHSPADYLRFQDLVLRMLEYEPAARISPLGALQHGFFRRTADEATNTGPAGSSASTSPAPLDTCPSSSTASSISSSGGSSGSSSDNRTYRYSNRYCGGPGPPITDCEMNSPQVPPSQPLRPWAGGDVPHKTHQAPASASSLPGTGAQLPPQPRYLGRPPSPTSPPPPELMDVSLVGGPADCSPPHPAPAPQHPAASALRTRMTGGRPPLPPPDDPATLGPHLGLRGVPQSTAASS

[28] = target: 97 kinases (kinase named in endpoint) (Homo sapiens, UniProt Q9Y6R4); conditions: read-out: % Ctrl, MAP3K4

97 kinases (kinase named in endpoint) (Homo sapiens, UniProt O14757), sequence (O14757 whole entry): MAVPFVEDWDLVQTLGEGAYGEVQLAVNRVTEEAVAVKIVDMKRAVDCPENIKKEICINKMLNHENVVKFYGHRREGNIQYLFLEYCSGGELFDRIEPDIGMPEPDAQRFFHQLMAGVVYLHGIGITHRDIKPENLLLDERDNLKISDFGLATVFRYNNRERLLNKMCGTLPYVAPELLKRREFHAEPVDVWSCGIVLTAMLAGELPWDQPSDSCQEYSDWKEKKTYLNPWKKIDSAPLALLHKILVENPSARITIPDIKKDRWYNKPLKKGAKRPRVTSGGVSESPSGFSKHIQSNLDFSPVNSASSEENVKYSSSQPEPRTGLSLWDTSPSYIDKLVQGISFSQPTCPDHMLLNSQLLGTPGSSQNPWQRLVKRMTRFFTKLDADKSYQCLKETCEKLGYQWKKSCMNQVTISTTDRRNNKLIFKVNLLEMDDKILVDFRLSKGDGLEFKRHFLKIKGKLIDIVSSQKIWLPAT

`CCCCCCCCCCCCCC(=O)N[C@@H](CC(N)=O)C(=O)N[C@@H](CC(C)C)C(=O)N[C@]1(C)CCCCCCC=CCCC[C@@](C)(C(=O)N[C@@H](CCC(=O)O)C(=O)N[C@@H](CC(C)C)C(=O)N[C@@H](CC(N)=O)C(N)=O)NC(=O)[C@H](CC(C)C)NC(=O)[C@H](CC(C)C)NC(=O)[C@H](CCCNC(=N)N)NC(=O)[C@H](CC(=O)O)NC(=O)[C@H](CC(C)C)NC(=O)[C@H](CCC(=O)O)NC1=O` [compound 2012] showed a remaining binding at 1 µM [1] of 97%, a remaining binding at 1 µM [2] of 98% and a remaining binding at 1 µM [3] of 100%. It also gave a remaining binding at 1 µM [4] of 100%, a remaining binding at 1 µM [5] of 99% and a remaining binding at 1 µM [6] of 99%. The remaining binding at 1 µM [7] was 90%, the remaining binding at 1 µM [8] was 100% and the remaining binding at 1 µM [9] was 98%. The remaining binding at 1 µM [10] was 93%, the remaining binding at 1 µM [11] was 79% and the remaining binding at 1 µM [12] was 93%. It also gave a remaining binding at 1 µM [13] of 100%, a remaining binding at 1 µM [14] of 97% and a remaining binding at 1 µM [15] of 99%. For the same molecule, the remaining binding at 1 µM [16] was 100%, the remaining binding at 1 µM [17] was 100% and the remaining binding at 1 µM [18] was 98%. It also gave a remaining binding at 1 µM [19] of 83%, a remaining binding at 1 µM [20] of 85% and a remaining binding at 1 µM [21] of 100%. The remaining binding at 1 µM [22] was 100%, the remaining binding at 1 µM [23] was 100% and the remaining binding at 1 µM [24] was 98%. For the same molecule, the remaining binding at 1 µM [25] was 100%, the remaining binding at 1 µM [26] was 79% and the remaining binding at 1 µM [27] was 91%. It also gave a remaining binding at 1 µM [28] of 90%.
In the case of `CNC(=O)c1ccc(Nc2ncc(C(F)(F)F)c(NCc3nccnc3N(C)S(C)(=O)=O)n2)cc1` [defactinib], the remaining binding at 1 µM [1] is reported as 39%, the remaining binding at 1 µM [2] is reported as 99% and the remaining binding at 1 µM [3] is reported as 100%. It also gave a remaining binding at 1 µM [4] of 43%, a remaining binding at 1 µM [5] of 12% and a remaining binding at 1 µM [6] of 36%. The remaining binding at 1 µM [7] was 43%, the remaining binding at 1 µM [8] was 88% and the remaining binding at 1 µM [9] was 86%. It also gave a remaining binding at 1 µM [10] of 95%, a remaining binding at 1 µM [11] of 64% and a remaining binding at 1 µM [12] of 91%. The remaining binding at 1 µM [13] was 100%, the remaining binding at 1 µM [14] was 61% and the remaining binding at 1 µM [15] was 85%. The remaining binding at 1 µM [16] was 75%, the remaining binding at 1 µM [17] was 9.9% and the remaining binding at 1 µM [18] was 41%. For the same molecule, the remaining binding at 1 µM [19] was 100%, the remaining binding at 1 µM [20] was 90% and the remaining binding at 1 µM [21] was 28%. For the same molecule, the remaining binding at 1 µM [22] was 13%, the remaining binding at 1 µM [23] was 100% and the remaining binding at 1 µM [24] was 82%. It also gave a remaining binding at 1 µM [25] of 100%, a remaining binding at 1 µM [26] of 47% and a remaining binding at 1 µM [27] of 14%. It also gave a remaining binding at 1 µM [28] of 69%.
